Results reported in patent US10479795B2 (Incyte Corporation, priority 2016, dated 2019).
Where a name gives a salt, the structure may show the parent alone. Read-outs that look alike come from different tables or passages of the source.

Assays:
[1] = system: Phosphorylated Ribosomal Protein S6 (RPS6); assay: THP-1 RPS6 ELISA Assay; format: cell-based, Human; conditions: THP-1 cells, read-out: PI3Kγ_THP1_RPS6_ELISA IC50
Description: To measure the Phosphorylated Ribosomal Protein S6 (RPS6) in cell lysates, THP-1 cells (Human Acute Monocytic Leukemia) are purchased from ATCC (Manassas, Va.) and maintained in RPMI with 10% FBS (Gibco/Life Technologies, Carlsbad, Calif.). For the assay, THP-1 cells are serum starved overnight in RPMI, then plated in RPMI (2×10^5 cells/well in 90 μL) into 96-well flat-bottom tissue culture treated plates (Corning, Corning, N.Y.), in the presence or absence of a concentration range of test compounds. Covered plates are incubated for 2 hours at 37° C., 5% CO2 then treated with or without 10 nM MCP-1 (MYBioSource, San Diego, Calif.) for 15 minutes at 37° C., 5% CO2. Plates are centrifuged at 1600 RPM and supernatants are removed. Cells are lysed in Lysis Buffer (Cell Signaling, Danvers, Mass.) with Protease Inhibitor (Calbiochem/EMD, Germany), PMSF (Sigma, St Louis Mo.), HALTS (Thermo Fisher, Rockford, Ill.) for 30 min on wet ice. Cell lysates are frozen at −80° C. before testing. The lysates are tested in the Human/Mouse/Rat Phospho-RPS6 ELISA (R&D Systems, Inc. Minn, Minn.). The plate is measured using a microplate reader (SpectraMax M5 —Molecular Devices, LLC Sunnyvale, Calif.) set to 450 nm with a wavelength correction of 540. IC50 determination is performed by fitting the curve of inhibitor percent inhibition versus the log of the inhibitor concentration using the GraphPad Prism 5.0 software.

[2] = target: PI3Kδ (p110δ/p85α) Recombinant Human Protein (Homo sapiens (Human), UniProt O00329); assay: PI3Kδ Scintillation Proximity Assay; format: biochemical
Method in brief: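 Assay conditions: 2 μM ATP (radiolabelled), 20 μM PIP2, 3.4 nM PI3Kδ, 20 mM MOPS pH 6.7 with 10 mM MgCl2, 5 mM DTT, 0.03% CHAPS, 2 h at room temperature. Signal from bead-captured 33P product; IC50 versus solvent control.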

[3] = target: PI3Kγ (p110γ) Recombinant Human Protein (Homo sapiens (Human), UniProt P48736); assay: PI3K-γ Scintillation Proximity Assay; format: biochemical; conditions: read-out: PI3Kγ IC50
Method in brief: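 Radiometric SPA readout: […] bound to WGA beads after overnight shaking, IC50 derived from % activity of DMSO control. Reaction used human p110γ, 2 μM ATP, 20 μM PIP2, pH 6.7 MOPS buffer with MgCl2, DTT, CHAPS, 2% DMSO, room temperature.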

Sequence of PI3Kδ (p110δ/p85α) Recombinant Human Protein (O00329 whole entry): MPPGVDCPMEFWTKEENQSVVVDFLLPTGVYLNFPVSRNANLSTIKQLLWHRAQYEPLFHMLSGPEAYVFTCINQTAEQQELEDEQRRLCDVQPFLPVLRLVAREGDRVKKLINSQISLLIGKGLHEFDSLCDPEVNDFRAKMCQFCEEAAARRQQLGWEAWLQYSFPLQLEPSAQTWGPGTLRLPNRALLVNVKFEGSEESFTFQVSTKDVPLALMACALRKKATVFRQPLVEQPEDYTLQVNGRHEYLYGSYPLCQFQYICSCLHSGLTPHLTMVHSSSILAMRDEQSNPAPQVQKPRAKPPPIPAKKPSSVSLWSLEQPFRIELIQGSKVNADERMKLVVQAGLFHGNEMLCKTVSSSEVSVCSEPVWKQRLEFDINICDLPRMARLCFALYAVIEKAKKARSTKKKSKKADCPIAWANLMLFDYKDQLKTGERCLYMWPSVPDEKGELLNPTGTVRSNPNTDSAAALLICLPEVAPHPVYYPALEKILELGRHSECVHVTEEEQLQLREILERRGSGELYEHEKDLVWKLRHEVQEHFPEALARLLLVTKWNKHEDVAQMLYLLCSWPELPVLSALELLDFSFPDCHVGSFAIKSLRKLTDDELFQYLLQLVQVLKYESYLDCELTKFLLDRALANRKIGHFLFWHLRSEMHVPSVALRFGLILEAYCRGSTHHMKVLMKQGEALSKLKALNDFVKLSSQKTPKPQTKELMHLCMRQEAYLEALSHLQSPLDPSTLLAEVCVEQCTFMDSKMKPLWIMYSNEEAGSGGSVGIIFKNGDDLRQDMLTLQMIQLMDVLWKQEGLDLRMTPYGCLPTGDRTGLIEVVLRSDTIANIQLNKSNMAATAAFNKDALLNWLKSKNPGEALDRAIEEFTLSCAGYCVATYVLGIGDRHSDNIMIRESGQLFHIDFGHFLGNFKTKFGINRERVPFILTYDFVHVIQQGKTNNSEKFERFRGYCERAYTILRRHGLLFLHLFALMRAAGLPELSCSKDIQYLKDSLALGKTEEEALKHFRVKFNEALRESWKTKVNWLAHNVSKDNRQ
Sequence of PI3Kδ (p110δ/p85α) Recombinant Human Protein (P27986 whole entry partner): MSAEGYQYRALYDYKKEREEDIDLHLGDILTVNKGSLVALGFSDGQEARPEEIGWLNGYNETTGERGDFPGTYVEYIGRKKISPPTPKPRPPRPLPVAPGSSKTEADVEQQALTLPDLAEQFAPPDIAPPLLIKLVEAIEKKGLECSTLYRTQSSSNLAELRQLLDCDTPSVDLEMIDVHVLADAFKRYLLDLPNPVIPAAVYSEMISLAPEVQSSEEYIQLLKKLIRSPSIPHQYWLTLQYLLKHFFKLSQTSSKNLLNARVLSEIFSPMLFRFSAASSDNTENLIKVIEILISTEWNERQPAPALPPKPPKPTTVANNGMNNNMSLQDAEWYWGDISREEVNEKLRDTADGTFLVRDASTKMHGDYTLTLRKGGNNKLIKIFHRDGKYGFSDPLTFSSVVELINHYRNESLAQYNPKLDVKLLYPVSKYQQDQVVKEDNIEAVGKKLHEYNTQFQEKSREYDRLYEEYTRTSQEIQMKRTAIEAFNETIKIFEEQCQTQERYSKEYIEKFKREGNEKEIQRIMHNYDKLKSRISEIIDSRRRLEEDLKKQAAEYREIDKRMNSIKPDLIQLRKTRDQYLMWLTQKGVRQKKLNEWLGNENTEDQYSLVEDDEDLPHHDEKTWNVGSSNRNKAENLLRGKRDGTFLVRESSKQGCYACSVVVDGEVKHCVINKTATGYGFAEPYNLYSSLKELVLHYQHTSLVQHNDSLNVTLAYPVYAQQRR
Sequence of PI3Kγ (p110γ) Recombinant Human Protein (P48736 whole entry): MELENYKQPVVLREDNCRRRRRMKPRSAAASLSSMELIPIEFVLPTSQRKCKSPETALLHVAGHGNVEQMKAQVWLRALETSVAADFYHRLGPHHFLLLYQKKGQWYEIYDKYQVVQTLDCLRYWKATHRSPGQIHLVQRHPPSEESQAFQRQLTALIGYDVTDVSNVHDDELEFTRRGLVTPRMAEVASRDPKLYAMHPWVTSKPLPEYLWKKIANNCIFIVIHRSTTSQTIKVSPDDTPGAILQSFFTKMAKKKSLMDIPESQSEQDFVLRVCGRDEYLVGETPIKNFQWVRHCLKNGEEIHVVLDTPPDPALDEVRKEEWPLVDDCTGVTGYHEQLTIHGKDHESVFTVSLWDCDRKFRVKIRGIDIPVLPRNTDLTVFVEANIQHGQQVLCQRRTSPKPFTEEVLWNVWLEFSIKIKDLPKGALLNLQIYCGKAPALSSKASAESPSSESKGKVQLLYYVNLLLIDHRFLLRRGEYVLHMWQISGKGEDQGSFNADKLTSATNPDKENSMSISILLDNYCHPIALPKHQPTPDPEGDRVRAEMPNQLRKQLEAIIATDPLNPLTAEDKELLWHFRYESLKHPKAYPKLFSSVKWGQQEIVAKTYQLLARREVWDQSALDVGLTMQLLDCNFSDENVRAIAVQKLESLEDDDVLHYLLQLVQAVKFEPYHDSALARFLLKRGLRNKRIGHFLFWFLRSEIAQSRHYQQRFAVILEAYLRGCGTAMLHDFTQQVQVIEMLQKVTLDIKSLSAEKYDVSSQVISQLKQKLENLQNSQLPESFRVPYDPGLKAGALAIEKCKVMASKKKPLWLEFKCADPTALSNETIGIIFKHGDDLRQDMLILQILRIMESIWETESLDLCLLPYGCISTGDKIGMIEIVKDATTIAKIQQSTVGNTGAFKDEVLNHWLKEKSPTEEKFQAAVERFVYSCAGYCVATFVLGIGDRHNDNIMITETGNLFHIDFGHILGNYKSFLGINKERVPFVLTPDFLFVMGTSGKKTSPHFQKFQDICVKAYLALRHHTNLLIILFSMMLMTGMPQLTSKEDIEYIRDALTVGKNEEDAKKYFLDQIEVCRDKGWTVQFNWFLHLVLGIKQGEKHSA

Row | Compound | IC50 ([1]; Homo sapiens) [nM] | IC50 [2] [nM] | IC50 [3] [nM] | IC50 [1] [nM]
1 | COc1nc(CO)ccc1-c1cn2c(-c3cc(S(C)(=O)=O)ccc3C)cnc2c(N)n1 [Example 490, (5-(8-Amino-3-(2-methyl-5-(methylsulfonyl)phenyl)imidazo[1,2-a]pyrazin-6-yl)-6-methoxypyridin-2-yl)methanol trifluoroacetate] | < 100 | 100 to 500 | < 100 | –
2 | CCS(=O)(=O)Nc1cc(-c2cnc3c(N)cccn23)cnc1F [Example 2, N-[5-(8-Aminoimidazo[1,2-a]pyridin-3-yl)-2-fluoropyridin-3-yl]ethanesulfonamide bis(trifluoroacetate)] | > 1000 | 500 to 2000 | 100 to 500 | –
3 | COc1ncccc1-c1cn2c(-c3cc(S(=O)(=O)C(C)(C)C(C)O)ccc3C)cnc2c(N)n1 (stereo not drawn) [Example 502, 3-((3-(8-Amino-6-(2-methoxypyridin-3-yl)imidazo[1,2-a]pyrazin-3-yl)-4-methylphenyl)sulfonyl)-3-methylbutan-2-ol trifluoroacetate] | 100 to 500 | < 100 | < 100 | –
4 | Cc1ccc(S(C)(=O)=O)cc1-c1cnc2c(N)nc(-c3cccc(OCC#N)c3)cn12 [Example 486, 2-(3-(8-Amino-3-(2-methyl-5-(methylsulfonyl)phenyl)imidazo[1,2-a]pyrazin-6-yl)phenoxy)acetonitrile trifluoroacetate] | 100 to 500 | 100 to 500 | < 100 | –
5 | Cc1ccc(S(C)(=O)=O)cc1-c1cnc2c(N)nc(-c3ccncc3Cl)cn12 [Example 484, 6-(3-Chloropyridin-4-yl)-3-(2-methyl-5-(methylsulfonyl)phenyl)imidazo[1,2-a]pyrazin-8-amine trifluoroacetate] | 100 to 500 | 100 to 500 | < 100 | –

Next, values leading:

Row | IC50 ([1]; Homo sapiens) [nM] | IC50 [2] [nM] | IC50 [3] [nM] | IC50 [1] [nM] | Compound
6 | – | < 100 | < 100 | < 100 | Cc1nc(N)c2ncc(-c3cc(S(=O)(=O)NC45CCC(CO)(CC4)OC5)cc(F)c3C)n2n1 [Example 404, 3-(4-amino-2-methylimidazo[1,2-f][1,2,4]triazin-7-yl)-5-fluoro-N-(1-(hydroxymethyl)-2-oxabicyclo[2.2.2]octan-4-yl)-4-methylbenzenesulfonamide trifluoroacetate salt]
7 | 100 to 500 | 100 to 500 | < 100 | – | Cc1ccc(S(=O)(=O)NC23CC(C(N)=O)(C2)C3)cc1-c1cnc2c(N)nc(C(F)(F)F)cn12 [Example 288, 3-(3-(8-Amino-6-(trifluoromethyl)imidazo[1,2-a]pyrazin-3-yl)-4-methylphenylsulfonamido)bicyclo[1.1.1]pentane-1-carboxamide trifluoroacetate salt]
8 | – | 100 to 500 | < 100 | < 100 | Cc1nc(N)c2ncc(-c3cc(S(=O)(=O)N[C@H]4CC[C@](C)(O)CC4)ccc3C)n2n1 [Example 271, 3-(4-amino-2-methylimidazo[1,2-f][1,2,4]triazin-7-yl)-N-((1r,4r)-4-hydroxy-4-methylcyclohexyl)-4-methylbenzenesulfonamide trifluoroacetate salt]
9 | 100 to 500 | 100 to 500 | < 100 | – | Cc1ccc(S(=O)(=O)N[C@H]2CC[C@H](O)CC2)cc1-c1cnc2c(N)nc(-c3cc(C(F)(F)F)nn3C)cn12 [Example 80, 3-{8-Amino-6-[1-methyl-3-(trifluoromethyl)-1H-pyrazol-5-yl]imidazo[1,2-a]pyrazin-3-yl}-N-(trans-4-hydroxycyclohexyl)-4-methylbenzenesulfonamide]
10 | 100 to 500 | 100 to 500 | < 100 | – | COc1cn[nH]c1-c1cn2c(-c3cc(S(C)(=O)=O)ccc3C)cnc2c(N)n1 [Example 491, 6-(4-Methoxy-1H-pyrazol-5-yl)-3-(2-methyl-5-(methylsulfonyl)phenyl)imidazo[1,2-a]pyrazin-8-amine trifluoroacetate]
